Assay results taken from article PMC7278776, “Multidrug Resistance Modulation Activity of Silybin Derivatives and Their Anti-Inflammatory Potential” (Antioxidants, 2020).
Structures can show the parent of a compound that is named as a salt.

Key:
[1] = test system: A2780/DOX; test: Sensitization of the MDR cell line to doxorubicin; format: cell-based, human; details: Homo sapiens, no flavonolignan added, same value repeated in each column, read-out: IC50 of doxorubicin alone
[2] = test system: A2780/DOX; test: Viability of A2780/DOX cells (resazurin)
Description: To determine the NO production, the medium was mixed with Griess reagent (0.04 g/mL, prepared in deionized water) in a 1:1 ratio. After 15 min, absorbance was recorded at 540 nm. To determine cell viability, the resazurin solution (0.03 mg/mL in PBS) was added to the cells. After 2 h of incubation, fluorescence was recorded (560/590 nm, ex./em.).
A multidrug resistant ovarian sub-line resistant to doxorubicin (A2780/DOX, Sigma-Aldrich) was cultivated in DMEM medium with 10% FBS and 1 × antibiotic antimycotic solution. Every other passage, doxorubicin at the final concentration of 0.1 µM was added to the culture medium to maintain the resistance of the cell line. To perform experiments, the cells were seeded at 1 × 10^5 cell/mL into the wells of a 96-well plate and incubated for 24 h. Afterwards, the cells were washed with PBS and fresh DMEM medium with tested compounds at 10, 20 and 30 µM were added to each well, except for the control wells. Subsequently, the cells were exposed to increasing concentrations of doxorubicin (0.6–20 µM) for 72 h. After incubation, the resazurin assay was performed as described above. The IC50 of doxorubicin was calculated for both the control and the samples and the fold change was counted up. […] The fold change lower than 1 means an antagonistic effect. (1) FOLD CHANGE=IC50 value of DOX cells treated with chemotherapeutic /IC50 value of DOX cells treated with chemotherapeutic and compound

[3] = test system: nitric oxide (NO) production by LPS-stimulated macrophages (RAW 264.7); test: NO production by LPS-stimulated macrophages (Griess); format: cell-based, mouse; details: Mus musculus, RAW264.7; RAW 264.7, LPS 1 µg/mL, 24 h; read-out: NO Production, concentration necessary to halve NO production (IC50)
Description: Immunomodulatory effect of tested compounds was determined as their ability to decrease nitric oxide (NO) production by LPS-stimulated macrophages (RAW 264.7, Sigma-Aldrich). Briefly, the cells were seeded into the 96-well plate at a density of 1 × 10^6 cells/mL in DMEM medium (supplemented with 2 mM L-glutamine and 1 × antibiotic antimycotic solution). After 48 h, the cells were washed with PBS. The MEM medium enriched with LPS (1 µg/mL) was added to the wells, together with the samples in the concentration range of 6.25–100 µM at a final volume of 100 µL. Indomethacin, a non-steroidal anti-inflammatory drug, was tested as a positive control in the concentration range 6.25–100 µM. After 24 h, the medium was used for the quantification of NO and inflammatory cytokines.
After 15 min, absorbance was recorded at 540 nm.

[4] = molecular target: T1, human recombinant P-gp (Homo sapiens, UniProt P08183); test: biochemical; details: verapamil-stimulated P-gp ATPase, membrane fraction; read-out: P-gp, concentration necessary to halve ATP consumption (IC50)
T1 construct: purchased Promega
Description: The procedure and the dilution of the reagents were performed according to the manufacturer’s instructions. Briefly, the human recombinant P-gp-containing membrane (25 µg) was mixed in a 96-well plate with P-gp–Glo™ Assay buffer (control), verapamil (P-gp substrate, positive control, 0.2 mM), Na3VO4 (P-gp inhibitor, negative control, 0.1 mM), ATP standards (to construct the calibration curve, 0.375–3 mM) or samples (2.5 µL, in the concentration range 0.7–20 mM). After that, MgATP (5 mM) was added to total volume of 50 µL to each well to initiate the ATPase reaction. The plate was incubated for 1 h at 37 °C. Thereafter, the reaction was stopped by adding 50 µL of ATP detection reagent and incubated at room temperature for 20 min. The remaining non-metabolized ATP was detected as a luciferase-generated signal.
Using linear regression, the standard ATP curve was designed, and by subsequent interpolation of relative luminescence (RLU) of standards, the amount of ATP consumed in the samples was recalculated according to the manufacturer’s guidelines.

[5] = test system: HepG2 cells; test: CAA (cellular antioxidant activity) assay; format: cell-based; details: Homo sapiens; HepG2, DCFH-DA/AAPH; read-out: CAA, concentration necessary to halve the fluorescence response (IC50)
Description: For the CAA assay, human hepatocellular carcinoma HepG2 cells (ATCC, Manassas, VA, USA) were seeded into a 96-well microplate at a density of 1 × 10^5 cells/well in EMEM medium supplemented with 10% of FBS, 2 mM L-glutamine and 1 × antibiotic antimycotic solution. The cells were maintained in a CO2 incubator (5% CO2, 37 °C, Memmert GmbH & Co, Büchenbach, Germany). The following day, the plates were washed with PBS and new fresh DMEM was added into each well supplemented with tested samples in the concentration range of 6.25–100 µM and fluorescent probe DCFH-DA (12.5 mg/L). After 1 h of incubation at 37 °C, the medium was replaced with AAPH solution (0.16 mg/mL in PBS), except for the negative control, where PBS was added instead. Directly, the fluorescence was recorded for 2 h in 5 min steps at 485/540 nm excitation/emission (ex./em.).

[6] = ORAC (oxygen radical absorption capacity) assay; details: fluorescein/AAPH; read-out: ORAC, concentration necessary to halve the fluorescence response (IC50)
Description: Antioxidant capacity of samples was determined by ORAC (oxygen radical absorption capacity) and CAA (cellular antioxidant activity) assays. ORAC assay was realized by the previously described protocol. Briefly, 50 µL of the fluorescein solution (1.6 µg/mL in phosphate-buffered saline (PBS), pH 7.4) was added by a dispenser (MultiFlo Microplate Dispenser, BioTek Instrument, Winooski, VT, USA) into each well of a 96-well plate. Subsequently, 2 µL of tested compound in the concentration range 1.25–20 µM and 23 µL of PBS were added to the wells. The plate was incubated for 15 min at 37 °C and then 25 µL of AAPH (60 mg/mL) was added to each well. AAPH was replaced with PBS for the negative control. Immediately, the fluorescence was recorded by the microplate reader (SpectraMax i3 Multi-Mode Detection Platform, Molecular Devices, San Jose, CA, USA) for 2 h in 5 min steps (excitation/emission 485/535 nm).

T1 sequence (P08183 whole entry): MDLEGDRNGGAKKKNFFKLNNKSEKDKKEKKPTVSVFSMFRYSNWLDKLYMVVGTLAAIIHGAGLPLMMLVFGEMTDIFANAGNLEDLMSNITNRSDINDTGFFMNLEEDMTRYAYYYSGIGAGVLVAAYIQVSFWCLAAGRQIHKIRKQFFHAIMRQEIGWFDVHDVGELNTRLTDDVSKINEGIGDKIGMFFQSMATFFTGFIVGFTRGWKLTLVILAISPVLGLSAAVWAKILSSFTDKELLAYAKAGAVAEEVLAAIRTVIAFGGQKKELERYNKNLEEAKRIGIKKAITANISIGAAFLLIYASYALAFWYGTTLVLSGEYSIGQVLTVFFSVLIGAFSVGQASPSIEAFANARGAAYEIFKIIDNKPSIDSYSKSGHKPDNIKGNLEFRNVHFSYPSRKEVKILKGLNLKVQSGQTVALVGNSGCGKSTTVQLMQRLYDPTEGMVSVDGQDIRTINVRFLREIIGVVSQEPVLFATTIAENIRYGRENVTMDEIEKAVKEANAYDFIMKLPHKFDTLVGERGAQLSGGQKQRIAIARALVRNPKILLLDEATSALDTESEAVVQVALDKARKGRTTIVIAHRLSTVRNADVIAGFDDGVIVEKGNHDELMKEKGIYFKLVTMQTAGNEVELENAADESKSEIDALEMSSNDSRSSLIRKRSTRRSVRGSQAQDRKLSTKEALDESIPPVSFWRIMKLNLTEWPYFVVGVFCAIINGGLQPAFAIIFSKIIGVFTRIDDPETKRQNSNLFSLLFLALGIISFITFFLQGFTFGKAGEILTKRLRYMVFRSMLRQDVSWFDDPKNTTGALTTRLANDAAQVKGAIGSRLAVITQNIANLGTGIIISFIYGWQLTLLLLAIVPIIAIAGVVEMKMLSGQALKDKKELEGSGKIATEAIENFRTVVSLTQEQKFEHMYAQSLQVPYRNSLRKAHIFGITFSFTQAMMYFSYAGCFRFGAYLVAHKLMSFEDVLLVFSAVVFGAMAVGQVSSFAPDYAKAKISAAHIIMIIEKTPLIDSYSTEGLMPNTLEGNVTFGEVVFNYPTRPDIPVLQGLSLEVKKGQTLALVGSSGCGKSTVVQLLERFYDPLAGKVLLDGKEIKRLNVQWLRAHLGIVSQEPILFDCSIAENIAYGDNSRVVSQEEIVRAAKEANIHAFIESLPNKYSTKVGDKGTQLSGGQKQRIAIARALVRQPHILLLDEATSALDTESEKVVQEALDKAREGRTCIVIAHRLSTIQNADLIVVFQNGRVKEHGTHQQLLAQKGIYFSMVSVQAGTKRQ

## COc1cccc2c1C(=O)c1c(O)c3c(c(O)c1C2=O)C[C@@](O)(C(=O)CO)C[C@@H]3O[C@H]1C[C@H](N)[C@H](O)[C@H](C)O1 [Doxorubicin, doxorubicin hydrochloride, reference compound]
[1]
  IC50: 1.88 ± 0.07 µM
[2]; A2780/DOX
  IC25: 0.94 µM
[2]; Homo sapiens, A2780, read-out: IC50 (µM), concentration necessary to halve cell viability
  IC50: 1.88 ± 0.07 µM

## COc1ccc2c(c1)c(CC(=O)O)c(C)n2C(=O)c1ccc(Cl)cc1 [Indomethacin, indomethacin, reference compound]
[3]
  IC50: 78.1 ± 7.5 µM

## [Na+].[Na+].[Na+].[O]=[V]([O-])([O-])[O-] [Orthovanadate, Sodium orthovanadate (Na3VO4), reference compound]
[4]
  IC50: 18.9 ± 1.8 µM

## O=c1c(O)c(-c2ccc(O)c(O)c2)oc2cc(O)cc(O)c12 [Quercetin, quercetin, reference compound]
[5]
  IC50: 5.4 ± 0.3 µM
[6]
  IC50: 6 ± 0.7 µM
